Data from PMC8589421, “Impact of Type II LRRK2 inhibitors on signaling and mitophagy” (Biochemical Journal, 2021).

Assays:
[1] = test system: Rab10 phosphorylation, LRRK2[A2016T]; experiment: Rab10 Thr73 phospho-immunoblot in inhibitor resistant LRRK2[A2016T] knock-in MEFs; assay type: cell-based, mouse; settings: 2 h, up to 3 µM
Protocol: Wild-type and homozygous LRRK2 [R1441C] (Jax, stock number: 009346), LRRK2[G2019S] Taconic, (model 13940) and LRRK2 [A2016T] (Jax, stock number: 021828)[7] knock-in MEF cells were isolated from littermate-matched mouse embryos on a C57BL/6J background at day E12.5 as described previously. MEFs were grown in Dulbecco's modified Eagle medium (DMEM GIBCO, #11960-085) containing 10% (by vol) fetal bovine serum (FBS), 2 mM L-glutamine, 100 U/ml penicillin, and […] streptomycin supplemented with non-essential amino acids and 1 mM sodium pyruvate. Human embryonic kidney 293 (HEK293) (#ATCC CRL-1573) and HeLa (#ATCC CCL-2) cells were purchased from American Tissue Culture Collection (ATCC) and cultured in DMEM containing 10% (by vol) FBS, 2 mM L-glutamine, 100 U/ml penicillin, and […] streptomycin. All cells were grown at 37°C, 5% (by vol) CO2 in a humidified atmosphere and regularly tested for mycoplasma contamination.
Inhibitors were dissolved in dimethyl sulfoxide (DMSO) (Sigma, #D2650). The inhibitors were diluted 1000× into cell medium. The equivalent volume of DMSO was added to the minus inhibitor controls. Experiments were performed in six-well plates, 10 cm dishes or 15 cm dishes depending on the amount of cell extract required.
Cells were lysed in an ice-cold lysis buffer containing 50 mM Tris–HCl, pH 7.4, 1% (by vol) Triton X-100, 10% (by vol) glycerol, 150 mM NaCl, 1 mM sodium orthovanadate, 50 mM NaF, 10 mM 2-glycerophosphate, 5 mM sodium pyrophosphate, 1 µg/ml microcystin-LR, and cOmplete EDTA-free protease inhibitor cocktail (Roche, #11836170001). Lysates were incubated on ice for 30 min and clarified by centrifugation at 20 800×g at 4°C for 20 min. Supernatants were quantified by Bradford assay (Bio-Rad Protein Assay Dye Reagent Concentrate #5000006) and samples prepared in 1× lithium dodecyl sulfate sample buffer final concentration (NuPage LDS Sample buffer 4× Invitrogen, #NP0008). When not deployed immediately, lysates were snap-frozen in liquid nitrogen and stored at −80°C until use. […]

[2] = test system: basal mitophagy, LRRK2 knock-out MEFs; experiment: mito-QC basal mitophagy in LRRK2 knock-out primary MEFs; assay type: cell-based, mouse; settings: 24 h
Protocol: To assess mitophagy, wild type, G2019S knock in, and LRRK2 knock out primary mouse embryonic fibroblasts (MEFs) were derived, from time-mated pregnant females at E12.5 as previously described. Briefly, cells were plated on glass coverslips and incubated with DMEM (Gibco, 11960-044) supplemented with 10% FBS, 2 mM L-Glutamine (Gibco, 2503-081), 1% non-essential amino acids (Gibco, 11140-035), 1% Antibiotics (Penicillin/Streptomycin 100 U/ml penicillin and 100 µg/ml streptomycin; Gibco), and 150 µM β-Mercaptoethanol (Gibco, 21985-023) at 37°C under a humidified 5% CO2 atmosphere. […] GSK3357679A 100 nM (Ding et al., in prep) was used as a positive control. At the end of the treatment, MEFs were briefly washed twice in DPBS (Gibco, 14190-094), and fixed in 3.7% Paraformaldehyde pH 7.00 (Sigma, P6148), 200 mM HEPES, for 20 min. Cells were then washed two times with DMEM, 10 mM HEPES, and then incubated for 10 min with DMEM, 10 mM HEPES. […] Images were acquired using a Nikon Eclipse Ti-S fluorescence microscope with a 63× objective. Images were analyzed using the mito-QC counter as previously described. Experiments were performed in 3–4 independent experiments and data was analyzed with a one-way ANOVA followed by a Dunnett's multiple comparison test using the GraphPad Prism software (version 8.4.3 (686)).

Cc1ccc(C(=O)Nc2ccc(CN3CCN(C)CC3)c(C(F)(F)F)c2)cc1C#Cc1cnc2[nH]ncc2c1 [GZD-824]
effect of A2016T mutation on inhibition of Rab10 phosphorylation [1]: markedly blocked
impact on basal mitophagy in LRRK2 knock-out cells [2]: neither GZD-824 or GSK3357679A impacted basal mitophagy
